Values of other authors as cited in patent publication US4916163A, “Spray-dried lactose formulation of micronized glyburide” (The Upjohn Company, priority 1985, dated 1990).

System: Type II (adult-onset) diabetes mellitus
Details: in words, background

Compound: COc1ccc(Cl)cc1C(=O)NCCc1ccc(S(=O)(=O)NC(=O)NC2CCCCC2)cc1 [glyburide, N-[4-(β-[2-methoxy-5-chloro-benzamido]-ethyl)-benzenesulfonyl]-N'-cyclohexyl-urea]
- Reduction of serum glucose concentrations: effective in reducing serum glucose concentrations
